Results from ChEMBL document CHEMBL3991601, “The target landscape of clinical kinase drugs” (Science, 2017).
Active and inactive are the calls of the source.

Assays:
Activin receptor type-2B = Activin receptor type-2B (Homo sapiens, UniProt Q13705)
Heme oxygenase 2 = biological target: T1, Heme oxygenase 2 (Homo sapiens, UniProt P30519)
T1 sequence (P30519 whole entry): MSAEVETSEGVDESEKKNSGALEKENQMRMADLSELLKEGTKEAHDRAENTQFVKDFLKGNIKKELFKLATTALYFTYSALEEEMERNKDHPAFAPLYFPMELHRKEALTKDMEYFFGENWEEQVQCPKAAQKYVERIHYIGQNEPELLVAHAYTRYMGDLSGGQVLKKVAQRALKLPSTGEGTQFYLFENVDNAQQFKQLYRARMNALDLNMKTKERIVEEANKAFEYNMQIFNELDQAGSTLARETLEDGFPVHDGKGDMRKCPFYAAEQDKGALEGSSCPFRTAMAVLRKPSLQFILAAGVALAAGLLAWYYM

[1] = biological target: T2, Dual specificity mitogen-activated protein kinase kinase 3 (Homo sapiens, UniProt P46734)
T2 sequence (P46734 whole entry): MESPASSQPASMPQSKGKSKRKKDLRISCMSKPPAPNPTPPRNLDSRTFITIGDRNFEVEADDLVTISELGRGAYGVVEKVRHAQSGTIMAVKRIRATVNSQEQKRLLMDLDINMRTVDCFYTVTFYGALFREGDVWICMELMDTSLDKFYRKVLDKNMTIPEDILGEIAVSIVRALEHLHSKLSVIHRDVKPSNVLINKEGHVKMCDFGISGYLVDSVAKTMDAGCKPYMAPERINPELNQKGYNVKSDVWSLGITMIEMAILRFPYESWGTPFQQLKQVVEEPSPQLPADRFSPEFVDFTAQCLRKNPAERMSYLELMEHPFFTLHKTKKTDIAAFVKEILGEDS

[2] = biological target: T3, Serine/threonine-protein kinase Nek9 (Homo sapiens, UniProt Q8TD19)
T3 sequence (Q8TD19 whole entry): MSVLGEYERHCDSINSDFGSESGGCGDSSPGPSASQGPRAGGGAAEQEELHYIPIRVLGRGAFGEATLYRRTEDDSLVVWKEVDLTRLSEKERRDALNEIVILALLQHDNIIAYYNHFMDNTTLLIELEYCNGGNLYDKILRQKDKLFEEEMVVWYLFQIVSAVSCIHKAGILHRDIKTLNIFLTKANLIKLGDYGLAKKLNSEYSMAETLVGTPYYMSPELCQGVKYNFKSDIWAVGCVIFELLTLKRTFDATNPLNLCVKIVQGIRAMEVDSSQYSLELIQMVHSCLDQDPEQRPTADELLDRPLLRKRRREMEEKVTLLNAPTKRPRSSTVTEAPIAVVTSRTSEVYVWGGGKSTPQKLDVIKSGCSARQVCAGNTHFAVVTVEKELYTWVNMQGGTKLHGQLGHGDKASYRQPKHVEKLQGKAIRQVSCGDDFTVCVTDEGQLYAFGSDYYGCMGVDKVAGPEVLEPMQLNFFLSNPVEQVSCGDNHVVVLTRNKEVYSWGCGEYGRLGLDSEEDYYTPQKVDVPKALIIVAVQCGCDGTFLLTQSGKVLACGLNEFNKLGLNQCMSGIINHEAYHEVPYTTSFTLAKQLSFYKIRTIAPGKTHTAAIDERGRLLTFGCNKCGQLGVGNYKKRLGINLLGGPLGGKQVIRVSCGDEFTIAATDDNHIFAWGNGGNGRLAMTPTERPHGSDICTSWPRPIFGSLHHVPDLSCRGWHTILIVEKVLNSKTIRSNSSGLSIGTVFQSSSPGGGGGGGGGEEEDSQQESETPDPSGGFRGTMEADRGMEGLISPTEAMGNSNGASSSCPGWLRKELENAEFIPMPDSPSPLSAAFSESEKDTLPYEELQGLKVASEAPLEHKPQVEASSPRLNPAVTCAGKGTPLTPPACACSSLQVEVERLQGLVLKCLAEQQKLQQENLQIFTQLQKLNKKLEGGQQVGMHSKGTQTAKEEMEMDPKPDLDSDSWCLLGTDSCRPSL

[3] = biological target: T4, Signal recognition particle receptor subunit alpha (Homo sapiens, UniProt P08240)
T4 sequence (P08240 whole entry): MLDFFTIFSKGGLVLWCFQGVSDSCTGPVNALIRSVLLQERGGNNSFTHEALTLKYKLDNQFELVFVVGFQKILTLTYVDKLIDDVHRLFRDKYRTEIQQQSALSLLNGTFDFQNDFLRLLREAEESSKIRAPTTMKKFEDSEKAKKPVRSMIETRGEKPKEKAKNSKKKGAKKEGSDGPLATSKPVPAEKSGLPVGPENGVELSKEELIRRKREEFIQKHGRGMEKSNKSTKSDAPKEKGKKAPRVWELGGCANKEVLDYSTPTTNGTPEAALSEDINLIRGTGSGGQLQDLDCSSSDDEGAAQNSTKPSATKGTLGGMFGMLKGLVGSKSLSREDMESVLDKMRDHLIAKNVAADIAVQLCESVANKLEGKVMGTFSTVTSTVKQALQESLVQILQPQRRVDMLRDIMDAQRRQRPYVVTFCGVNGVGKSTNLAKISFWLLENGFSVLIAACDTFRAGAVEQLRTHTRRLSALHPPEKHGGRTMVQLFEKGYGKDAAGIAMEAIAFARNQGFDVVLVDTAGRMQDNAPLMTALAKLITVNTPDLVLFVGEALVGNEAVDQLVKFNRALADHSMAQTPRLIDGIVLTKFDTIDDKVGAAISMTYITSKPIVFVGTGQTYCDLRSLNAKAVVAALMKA

[4] = biological target: Serine/threonine-protein kinase 16 (Homo sapiens, UniProt O75716)
Serine/threonine-protein kinase 16, sequence (O75716 whole entry): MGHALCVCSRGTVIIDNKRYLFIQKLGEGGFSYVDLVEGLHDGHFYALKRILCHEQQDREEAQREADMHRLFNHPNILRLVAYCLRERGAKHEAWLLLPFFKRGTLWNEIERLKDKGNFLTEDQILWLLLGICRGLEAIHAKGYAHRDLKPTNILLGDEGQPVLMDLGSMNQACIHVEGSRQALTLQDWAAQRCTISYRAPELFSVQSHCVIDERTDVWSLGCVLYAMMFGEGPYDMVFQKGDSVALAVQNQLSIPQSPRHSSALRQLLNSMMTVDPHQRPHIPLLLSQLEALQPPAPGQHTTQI

Activated CDC42 kinase 1 = Activated CDC42 kinase 1 (Homo sapiens, UniProt Q07912)
Activated CDC42 kinase 1, sequence (Q07912 whole entry): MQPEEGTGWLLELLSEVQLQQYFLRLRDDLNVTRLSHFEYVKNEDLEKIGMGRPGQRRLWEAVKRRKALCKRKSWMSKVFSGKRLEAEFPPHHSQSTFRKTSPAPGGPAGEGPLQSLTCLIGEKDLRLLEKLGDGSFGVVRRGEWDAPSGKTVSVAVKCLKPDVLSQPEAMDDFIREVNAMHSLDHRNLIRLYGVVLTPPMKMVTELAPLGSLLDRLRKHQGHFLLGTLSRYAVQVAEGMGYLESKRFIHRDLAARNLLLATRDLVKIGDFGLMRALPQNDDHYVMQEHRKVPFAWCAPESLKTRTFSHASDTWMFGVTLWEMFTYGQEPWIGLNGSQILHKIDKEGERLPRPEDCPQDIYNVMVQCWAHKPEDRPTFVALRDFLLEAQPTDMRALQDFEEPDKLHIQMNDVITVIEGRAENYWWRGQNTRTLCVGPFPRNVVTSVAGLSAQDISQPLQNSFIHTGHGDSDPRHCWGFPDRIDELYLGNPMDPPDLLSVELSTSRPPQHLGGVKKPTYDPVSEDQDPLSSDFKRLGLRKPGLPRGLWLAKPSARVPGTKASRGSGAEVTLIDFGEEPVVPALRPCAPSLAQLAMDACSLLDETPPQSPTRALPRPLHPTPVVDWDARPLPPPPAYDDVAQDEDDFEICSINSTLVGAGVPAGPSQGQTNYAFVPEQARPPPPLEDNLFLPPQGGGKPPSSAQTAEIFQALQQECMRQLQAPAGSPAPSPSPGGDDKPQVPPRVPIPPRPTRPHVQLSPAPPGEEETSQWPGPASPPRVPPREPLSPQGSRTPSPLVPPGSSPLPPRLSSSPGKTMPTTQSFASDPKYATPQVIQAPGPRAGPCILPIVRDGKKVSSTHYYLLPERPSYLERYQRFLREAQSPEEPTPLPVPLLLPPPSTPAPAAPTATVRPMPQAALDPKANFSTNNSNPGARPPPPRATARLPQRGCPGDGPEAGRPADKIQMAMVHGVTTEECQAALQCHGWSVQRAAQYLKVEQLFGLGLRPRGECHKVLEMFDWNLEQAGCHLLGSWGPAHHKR

Scaffold protein ILK = biological target: T5, Scaffold protein ILK (Homo sapiens, UniProt Q13418)
T5 sequence (Q13418 whole entry): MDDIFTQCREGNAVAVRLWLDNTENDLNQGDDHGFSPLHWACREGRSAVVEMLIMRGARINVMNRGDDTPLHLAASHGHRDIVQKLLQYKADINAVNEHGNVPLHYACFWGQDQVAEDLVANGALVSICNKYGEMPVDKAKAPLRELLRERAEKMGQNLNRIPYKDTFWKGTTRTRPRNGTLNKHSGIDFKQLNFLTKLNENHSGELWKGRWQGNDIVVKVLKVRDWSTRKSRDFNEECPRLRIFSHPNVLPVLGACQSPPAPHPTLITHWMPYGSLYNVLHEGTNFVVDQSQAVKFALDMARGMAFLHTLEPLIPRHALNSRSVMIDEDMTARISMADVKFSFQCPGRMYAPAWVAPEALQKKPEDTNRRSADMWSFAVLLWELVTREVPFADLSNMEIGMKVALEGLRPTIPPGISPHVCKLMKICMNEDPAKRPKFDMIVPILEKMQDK

[5] = biological target: Non-receptor tyrosine-protein kinase TYK2 (Homo sapiens, UniProt P29597)
Non-receptor tyrosine-protein kinase TYK2, sequence (P29597 whole entry): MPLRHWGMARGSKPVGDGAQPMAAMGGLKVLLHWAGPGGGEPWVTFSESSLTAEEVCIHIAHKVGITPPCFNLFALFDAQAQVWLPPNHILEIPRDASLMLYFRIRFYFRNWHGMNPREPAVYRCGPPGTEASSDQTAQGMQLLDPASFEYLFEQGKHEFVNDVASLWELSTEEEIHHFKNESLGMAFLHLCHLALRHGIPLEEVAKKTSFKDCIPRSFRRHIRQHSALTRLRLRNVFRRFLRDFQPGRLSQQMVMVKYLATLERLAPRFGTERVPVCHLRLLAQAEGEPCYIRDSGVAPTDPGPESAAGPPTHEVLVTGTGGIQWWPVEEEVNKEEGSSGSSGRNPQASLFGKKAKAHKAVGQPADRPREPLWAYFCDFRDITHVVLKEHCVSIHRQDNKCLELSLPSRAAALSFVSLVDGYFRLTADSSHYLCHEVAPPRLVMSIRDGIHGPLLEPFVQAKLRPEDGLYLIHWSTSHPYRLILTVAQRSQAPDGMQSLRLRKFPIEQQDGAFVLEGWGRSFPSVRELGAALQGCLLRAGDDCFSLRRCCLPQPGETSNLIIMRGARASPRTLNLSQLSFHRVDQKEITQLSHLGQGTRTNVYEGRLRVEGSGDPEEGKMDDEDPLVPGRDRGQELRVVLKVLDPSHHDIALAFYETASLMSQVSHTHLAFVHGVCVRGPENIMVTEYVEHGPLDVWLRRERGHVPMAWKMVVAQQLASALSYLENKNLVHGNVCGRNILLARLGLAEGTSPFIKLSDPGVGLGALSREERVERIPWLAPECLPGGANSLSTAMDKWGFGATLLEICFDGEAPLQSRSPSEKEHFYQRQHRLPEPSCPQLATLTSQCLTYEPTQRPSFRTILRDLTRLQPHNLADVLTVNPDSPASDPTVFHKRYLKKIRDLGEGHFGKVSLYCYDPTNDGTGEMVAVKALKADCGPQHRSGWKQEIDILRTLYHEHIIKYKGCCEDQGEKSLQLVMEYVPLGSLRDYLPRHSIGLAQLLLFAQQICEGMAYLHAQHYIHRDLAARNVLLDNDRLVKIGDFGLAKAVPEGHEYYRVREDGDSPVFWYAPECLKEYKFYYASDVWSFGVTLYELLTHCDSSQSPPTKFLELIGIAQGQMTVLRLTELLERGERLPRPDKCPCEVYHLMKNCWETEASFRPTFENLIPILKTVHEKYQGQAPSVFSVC
Further: in the data inactive means no Kd found up to 30 µM.

Activin receptor type-2B, sequence (Q13705 whole entry): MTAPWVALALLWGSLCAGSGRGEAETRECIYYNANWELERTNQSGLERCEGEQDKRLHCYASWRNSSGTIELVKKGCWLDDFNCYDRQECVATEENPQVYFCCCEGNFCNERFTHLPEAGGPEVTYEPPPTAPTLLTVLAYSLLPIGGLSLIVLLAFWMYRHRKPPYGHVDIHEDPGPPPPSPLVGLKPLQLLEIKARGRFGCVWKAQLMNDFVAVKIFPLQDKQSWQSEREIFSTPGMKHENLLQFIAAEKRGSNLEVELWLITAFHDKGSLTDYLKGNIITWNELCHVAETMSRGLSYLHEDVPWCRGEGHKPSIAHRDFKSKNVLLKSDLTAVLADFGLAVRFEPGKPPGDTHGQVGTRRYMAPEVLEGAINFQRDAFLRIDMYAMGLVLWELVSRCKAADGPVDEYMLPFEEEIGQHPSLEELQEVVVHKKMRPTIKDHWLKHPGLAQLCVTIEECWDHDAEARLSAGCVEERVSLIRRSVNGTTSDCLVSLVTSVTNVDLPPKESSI

Compound	Kd (Heme oxygenase 2)	Kd [3]	Kd (Scaffold protein ILK)	Kd (Activin receptor type-2B)	Kd [1]	Kd [2]	Kd [4]	Kd (Activated CDC42 kinase 1)	Kd [5]
C[C@]1(O)C[C@@H](c2nc(-c3ccc4ccc(-c5ccccc5)nc4c3)c3c(N)nccn32)C1 [LINSITINIB]	> 30 µM (inactive)	> 30 µM (inactive)	–	> 30 µM (inactive)	> 30 µM (inactive)	> 30 µM (inactive)	> 30 µM (inactive)	> 30 µM (inactive)	–
CN(c1ncccc1CNc1nc(Nc2ccc3c(c2)CC(=O)N3)ncc1C(F)(F)F)S(C)(=O)=O [PF-00562271]	> 30 µM (inactive)	> 30 µM (inactive)	> 30 µM (inactive)	> 30 µM (inactive)	> 30 µM (inactive)	> 30 µM (inactive)	0.138 µM (active)	–	–
Cn1c(=O)n(-c2ccc(C(C)(C)C#N)cc2)c2c3cc(-c4cnc5ccccc5c4)ccc3ncc21 [DACTOLISIB]	> 30 µM (inactive)	> 30 µM (inactive)	> 30 µM (inactive)	> 30 µM (inactive)	> 30 µM (inactive)	> 30 µM (inactive)	> 30 µM (inactive)	–	> 30 µM (inactive)
CN1CCN(c2nc(C3=C(c4c[nH]c5ccccc45)C(=O)NC3=O)c3ccccc3n2)CC1 [SOTRASTAURIN]	> 30 µM (inactive)	–	–	> 30 µM (inactive)	> 30 µM (inactive)	> 30 µM (inactive)	> 30 µM (inactive)	> 30 µM (inactive)	> 30 µM (inactive)
O=S(=O)(c1cccc2cnccc12)N1CCCNCC1 [FASUDIL]	> 30 µM (inactive)	> 30 µM (inactive)	> 30 µM (inactive)	> 30 µM (inactive)	> 30 µM (inactive)	> 30 µM (inactive)	> 30 µM (inactive)	–	–
COc1cc(F)c(F)c(Nc2ccc(I)cc2F)c1NS(=O)(=O)C1(C[C@H](O)CO)CC1 [REFAMETINIB]	> 30 µM (inactive)	–	–	> 30 µM (inactive)	> 30 µM (inactive)	> 30 µM (inactive)	> 30 µM (inactive)	> 30 µM (inactive)	> 30 µM (inactive)
CC(C)CC(=O)Nc1[nH]nc2c1CN(C(=O)C1CCN(C)CC1)C2(C)C [PHA-793887]	–	–	> 30 µM (inactive)	> 30 µM (inactive)	> 30 µM (inactive)	> 30 µM (inactive)	> 30 µM (inactive)	> 30 µM (inactive)	> 30 µM (inactive)
C=CCn1c(=O)c2cnc(Nc3ccc(N4CCN(C)CC4)cc3)nc2n1-c1cccc(C(C)(C)O)n1 [ADAVOSERTIB]	> 30 µM (inactive)	> 30 µM (inactive)	> 30 µM (inactive)	> 30 µM (inactive)	> 30 µM (inactive)	> 30 µM (inactive)	> 30 µM (inactive)	–	> 30 µM (inactive)
N#CCNC(=O)c1ccc(-c2ccnc(Nc3ccc(N4CCOCC4)cc3)n2)cc1 [MOMELOTINIB]	> 30 µM (inactive)	> 30 µM (inactive)	> 30 µM (inactive)	> 30 µM (inactive)	> 30 µM (inactive)	0.474 µM (active)	1.28 µM (active)	> 30 µM (inactive)	–

Further lines, with some results ahead:

Kd (Heme oxygenase 2)	Kd [3]	Kd (Scaffold protein ILK)	Compound	Kd (Activin receptor type-2B)	Kd [1]	Kd [2]	Kd [4]	Kd (Activated CDC42 kinase 1)	Kd [5]
> 30 µM (inactive)	–	–	O[C@H]1CC[C@H](Nc2ncc3nc(Nc4c(F)cc(F)cc4F)n([C@H]4CCOC4)c3n2)CC1 [TANZISERTIB]	> 30 µM (inactive)	> 30 µM (inactive)	> 30 µM (inactive)	> 30 µM (inactive)	> 30 µM (inactive)	> 30 µM (inactive)
> 30 µM (inactive)	> 30 µM (inactive)	–	CCOc1ccn(-c2ccc(F)cc2)c(=O)c1C(=O)Nc1ccc(Oc2ccnc(N)c2Cl)c(F)c1 [BMS-777607]	> 30 µM (inactive)	–	> 30 µM (inactive)	> 30 µM (inactive)	> 30 µM (inactive)	–
> 30 µM (inactive)	> 30 µM (inactive)	> 30 µM (inactive)	Cn1cnc2c(F)c(Nc3ccc(Br)cc3Cl)c(C(=O)NOCCO)cc21 [SELUMETINIB]	–	–	–	–	–	–
–	> 30 µM (inactive)	> 30 µM (inactive)	COc1cc2c(N3CCN(C(=O)Nc4ccc(OC(C)C)cc4)CC3)ncnc2cc1OCCCN1CCCCC1 [TANDUTINIB]	–	–	–	–	–	–
> 30 µM (inactive)	> 30 µM (inactive)	> 30 µM (inactive)	COc1cc2c(Oc3ccc4[nH]c(C)cc4c3F)ncnc2cc1OCCCN1CCCC1 [CEDIRANIB]	–	–	–	–	–	–
> 30 µM (inactive)	> 30 µM (inactive)	> 30 µM (inactive)	CC[C@@](C)(Nc1ccnc(-c2c[nH]c3ncccc23)n1)C(=O)NCC(F)(F)F [DECERNOTINIB]	> 30 µM (inactive)	–	> 30 µM (inactive)	> 30 µM (inactive)	> 30 µM (inactive)	–
> 30 µM (inactive)	> 30 µM (inactive)	> 30 µM (inactive)	CC1(C)CNc2cc(NC(=O)c3cccnc3NCc3ccncc3)ccc21 [MOTESANIB]	–	–	–	–	–	–
> 30 µM (inactive)	> 30 µM (inactive)	> 30 µM (inactive)	CN(C)C/C=C/C(=O)Nc1cc2c(Nc3ccc(F)c(Cl)c3)ncnc2cc1O[C@H]1CCOC1 [AFATINIB]	–	–	–	–	–	–
> 30 µM (inactive)	> 30 µM (inactive)	> 30 µM (inactive)	C[C@@]1(C(=O)Nc2ccc(F)nc2)CCCN1c1nc(Nc2cc(C3CC3)n[nH]2)c2cccn2n1 [BMS-754807]	–	–	–	–	–	–
> 30 µM (inactive)	–	–	CCN(CCCOc1ccc2c(Nc3cc(CC(=O)Nc4cccc(F)c4)n[nH]3)ncnc2c1)CCOP(=O)(O)O [BARASERTIB]	> 30 µM (inactive)	> 30 µM (inactive)	> 30 µM (inactive)	> 30 µM (inactive)	–	> 30 µM (inactive)
